Results on five compounds are retold here after patent US12528814B2, “Bifunctional degraders of interleukin-1 receptor-associated kinases and therapeutic use thereof” (NURIX THERAPEUTICS, INC., priority 2020, dated 2026).

The target in assay [1] is T1, IRAK4 (Homo sapiens (Human), UniProt Q9NWZ3). The assay is described as follows: IRAK4 Biochemical HTRF Kinase Assay. The essentials:
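HTRF KinEASE STK S1 format measuring IRAK4 phosphorylation of biotinylated peptide; reaction solution of 5 μM STK-S1, 10 mM ATP, 10 mM MgCl2 added (stock, to 10 μl final), 90 min at ambient temperature, detection 60 min. IC50 from sixteen-point duplicate curves by non-linear regression.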
Target sequence in this assay (Q9NWZ3 whole entry, species assumed): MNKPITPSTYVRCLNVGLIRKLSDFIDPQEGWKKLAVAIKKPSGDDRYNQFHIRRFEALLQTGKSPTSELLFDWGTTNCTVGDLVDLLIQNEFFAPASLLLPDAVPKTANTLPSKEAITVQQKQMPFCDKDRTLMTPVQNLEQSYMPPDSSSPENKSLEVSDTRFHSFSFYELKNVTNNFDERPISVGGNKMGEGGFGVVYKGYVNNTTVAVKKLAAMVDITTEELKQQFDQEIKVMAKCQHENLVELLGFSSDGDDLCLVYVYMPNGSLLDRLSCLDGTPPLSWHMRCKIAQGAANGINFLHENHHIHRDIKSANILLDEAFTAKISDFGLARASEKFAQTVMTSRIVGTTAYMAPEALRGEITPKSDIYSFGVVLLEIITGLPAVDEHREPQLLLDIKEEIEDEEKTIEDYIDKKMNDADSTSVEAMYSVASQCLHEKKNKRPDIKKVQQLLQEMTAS
A general note: In TR-FRET formats the signal depends on donor and acceptor labels being close together.

A further assay addresses IRAK1 (Homo sapiens (Human), UniProt P51617). The assay is described as follows: Western Assay for IRAK1 Degradation. It is filed as cell-based. Conditions: wild-type Jurkat cells, 4 hrs. The method, then: (§1) Biological Example 4 Western Assay for IRAK4, IRAK1 and GSPT1 Degradation
(§2) DMSO was stamped into wells A12-H12 at 500 nL/well (NC, Negative Control, maximum signal). […] Following incubation, plates were centrifuged for 5 min at 1600 rpm. Media was removed and cell pellets were lysed in 50 μL lysis buffer (RIPA buffer (Fisher, PI89901), cOmplete Mini EDTA-free protease inhibitor (Sigma 11836170001), Protease Inhibitor Cocktail (Sigma, P2714), Phosphatase Inhibitor Cocktail 2 and 3 (Sigma, P5726 and P0044), Benzonase (Sigma, E1014)). Cells were lysed overnight at −20° C. Plates were centrifuged for 5 min at 1600 rpm and lysate supernatants were transferred to storage plates. Protein levels were determined by BCA Assay performed according to manufacturer's protocol (EMD Millipore, cat. no. 71285-3). Samples were combined with (4×) LDS Sample Buffer and (10×) Reducing Agent and H2O to equally load 10 ug protein per lane of a 26-well NuPAGE 4-12% Bis-Tris protein gel (1.0 mm, Thermo cat. no. NP0326). Samples were separated by running gels at constant 200 V in NuPAGE MES SDS Running Buffer. Following electrophoresis, proteins were transferred to nitrocellulose membranes using an iBlot Gel Transfer Device and iBlot Gel Transfer Stacks (Thermo cat. no. IB21001 and IB301001) and transfer method PO (20V 1 min, 23V 4 min, 25V 2 min). Membranes were blocked for 1 hr in 5% milk solution (TBS (0.2% Tween-20)).
(§3) Following blocking, membranes were incubated with primary antibody overnight at 4° C. with gentle shaking. The primary antibodies and dilutions used were as follows: IRAK4—abcam ab3200612, 1:500; IRAK1—Cell Signaling Technologies D51G7 #4504, 1:500; GSPT1—Cell Signaling Technologies #14980, 1:500). Blots were washed 3× in TBS (0.2% Tween-20), 5-10 min per wash. Following washes, blots were incubated in secondary HRP-conjugated antibody (Promega anti-Rabbit IgG (H+L) HRP, cat. no. W4011), 1:5000 in 5% milk solution (TBS (0.2% Tween-20)), for 1 hr at room temperature with gentle shaking. Blots were washed 3× in TBS (0.2% Tween-20), 5-10 min per wash. Blots were incubated with 1:1 mix of ECL reagents 1 & 2 (Amersham ECL Western Blotting Detection Reagent, cat. no. RPN2106) for 2-3 min at room temperature. Bands were visualized using a Protein Simple imager. Blots were then re-probed with a combination of anti-actin antibody (Sigma Monoclonal Mouse Anti-3-Actin (clone AC-15), cat. no. A5441) and secondary HRP-conjugated antibody (Promega anti-Mouse IgG (H+L) HRP, cat. no. W4021) and similar steps were taken for incubation, wash, detection and visualization steps as above. The data was analyzed using Alpha View software. The densitometric reading for each sample band was normalized to that of the corresponding actin band per lane.

In assay [2] the target is T1, IRAK4. Kind of assay: IRAK4 Degradation HiBiT Assay. Conditions: for Dmax: Jurkat.
Target sequence in this assay (Q9NWZ3 whole entry): as the sequence (Q9NWZ3 whole entry, species assumed) above
Another assay has as its target GSPT1 (Homo sapiens (Human), UniProt P15170+Q96SW2). The assay is described as follows: Western Assay for GSPT1 Degradation. Particulars: wild-type Jurkat cells, 24 hrs. The class given is cell-based. The method, then:
as §1, §2, §3

In assay [3] the target is T1, IRAK4. The assay is described as follows: IRAK4 Degradation HTRF Assay. Particulars: wild-type Jurkat cells, 4 hrs. It is filed as cell-based. The method, then:
DMSO was stamped into wells A12-H12 at 400 nL/well (NC, Negative Control, maximum signal). […] Following incubation, plates were centrifuged for 5 min at 1600 rpm. […] Cells were incubated 30 min at room temperature with gentle shaking. 16 μL each lysate was transferred to 96-well detection plate included in Cisbio Total IRAK4 HTRF Assay Kit (cat. no. 63ADK108PEG). To the lysates was added 2 μL each of Total-IRAK4 d2 antibody and Total-IRAK4 Cryptate antibody (Cisbio Total IRAK4 HTRF Assay Kit). Plates were incubated overnight at RT. Fluorescence emission at 665 nm and 620 nm was read using an EnVision plate reader. The HTRF Ratio was calculated per sample using the following equation: HTRF Ratio=(665 nm signal/620 nm signal)×10,000
Target sequence in this assay (Q9NWZ3 whole entry): as the sequence (Q9NWZ3 whole entry, species assumed) above

For a further assay, the system named is Jurkat cells. The assay is described as follows: Viability Assay (Celltiter-Glo). The class given is cell-based. Particulars: Homo sapiens, 4 hrs, read-out: Viability assessment EC50. The method, then: Viability Assay (Celltiter-Glo)
DMSO was stamped into empty wells at 60 nL/well (NC, Negative Control, maximum signal). […] Following incubation, the CellTiter-Glo assay was performed according to manufacturer's instructions (Promega CellTiter-Glo Luminescent Cell Viability Assay, cat. no. G7570).
(In ATP-based viability assays light output follows the ATP content of the culture.)

Assay [4] concerns the target T1, IRAK4. Kind of assay: IRAK4 Degradation Competition/Rescue Assay. The class given is cell-based. Particulars: degrader 1 μM; 1 hr pre-treatment with Nedd8i (5 μM) or MG-132 (20 or 50 μM); HiBiT Jurkat clone 8D5. The text has this:
IRAK4 Degradation Competition/Rescue Assay
Target sequence in this assay (Q9NWZ3 whole entry): as the sequence (Q9NWZ3 whole entry, species assumed) above
For orientation: With HiBiT, luminescence reflects the tagged protein that the partner subunit can reach.

The mark [5] stands for this setting: Table 2, CRBN-targeting compounds, read-out: IRAK4 biochemical IC50.
Setting [6] is: read-out: IRAK4 HiBit Dmax, C-terminal HiBiT-tagged Jurkat cells, 4 hrs, Tables 2-3.
[7] abbreviates: read-out: IRAK4 HiBit DC50, C-terminal HiBiT-tagged Jurkat cells, 4 hrs, Tables 2-3.
Setting [8] is: Table 3, VHL-targeting compounds, read-out: IRAK4 biochemical IC50.
[9] abbreviates: Table 4, read-out: IRAK4 HTRF biochemical: IC50.
Setting [10] is: Table 5, multiple runs, read-out: IRAK4 HTRF biochemical: IC50.
Setting [11] is: read-out: Cellular IRAK4 HiBiT: Dmax, Table 4, HiBiT-tagged Jurkat cells, 4 hrs.
Where [12] appears, read: read-out: Cellular IRAK4 HiBiT: Dmax, Table 5, multiple runs, HiBiT-tagged Jurkat cells, 4 hrs.
The mark [13] stands for this setting: read-out: Cellular IRAK4 HiBiT: DC50, Table 4, HiBiT-tagged Jurkat cells, 4 hrs.
Where [14] appears, read: read-out: Cellular IRAK4 HiBiT: DC50, Table 5, multiple runs, HiBiT-tagged Jurkat cells, 4 hrs.

In general, IC50 refers to the concentration that inhibits the measured activity by half. By DC50 is commonly meant the concentration at which degradation of the target reaches its halfway point. What is called Dmax is the greatest extent of degradation seen. In general, EC50 refers to the midpoint of the concentration-response curve.

Read-outs that look alike come from different tables or passages of the source. Some results are limits rather than exact numbers.

GSPT1, sequence (P15170 whole entry): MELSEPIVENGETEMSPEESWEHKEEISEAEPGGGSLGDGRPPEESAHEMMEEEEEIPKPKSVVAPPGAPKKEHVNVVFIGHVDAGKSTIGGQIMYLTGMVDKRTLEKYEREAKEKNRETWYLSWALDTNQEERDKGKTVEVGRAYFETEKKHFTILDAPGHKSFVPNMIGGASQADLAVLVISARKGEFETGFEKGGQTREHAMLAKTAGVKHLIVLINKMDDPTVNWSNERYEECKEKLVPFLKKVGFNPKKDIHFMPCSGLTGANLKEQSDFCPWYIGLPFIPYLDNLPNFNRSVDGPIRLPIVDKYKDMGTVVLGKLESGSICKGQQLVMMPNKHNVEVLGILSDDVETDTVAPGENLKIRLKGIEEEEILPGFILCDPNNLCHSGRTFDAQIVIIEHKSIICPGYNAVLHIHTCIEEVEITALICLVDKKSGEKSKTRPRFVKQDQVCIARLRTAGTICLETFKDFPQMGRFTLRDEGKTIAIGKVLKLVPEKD
GSPT1, sequence (Q96SW2 whole entry): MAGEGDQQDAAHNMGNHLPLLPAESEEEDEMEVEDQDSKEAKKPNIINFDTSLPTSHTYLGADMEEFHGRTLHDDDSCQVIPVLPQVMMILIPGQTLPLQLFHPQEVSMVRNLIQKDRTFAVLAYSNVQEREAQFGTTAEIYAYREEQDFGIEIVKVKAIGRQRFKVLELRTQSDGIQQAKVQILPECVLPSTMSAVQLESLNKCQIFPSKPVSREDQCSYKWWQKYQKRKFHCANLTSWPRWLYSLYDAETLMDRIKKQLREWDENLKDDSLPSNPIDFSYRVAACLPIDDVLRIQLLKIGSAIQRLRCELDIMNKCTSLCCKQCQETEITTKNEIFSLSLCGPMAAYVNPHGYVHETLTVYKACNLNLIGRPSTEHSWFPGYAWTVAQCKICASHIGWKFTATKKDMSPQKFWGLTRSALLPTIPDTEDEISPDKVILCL
GSPT1, sequence (Q16531 whole entry partner): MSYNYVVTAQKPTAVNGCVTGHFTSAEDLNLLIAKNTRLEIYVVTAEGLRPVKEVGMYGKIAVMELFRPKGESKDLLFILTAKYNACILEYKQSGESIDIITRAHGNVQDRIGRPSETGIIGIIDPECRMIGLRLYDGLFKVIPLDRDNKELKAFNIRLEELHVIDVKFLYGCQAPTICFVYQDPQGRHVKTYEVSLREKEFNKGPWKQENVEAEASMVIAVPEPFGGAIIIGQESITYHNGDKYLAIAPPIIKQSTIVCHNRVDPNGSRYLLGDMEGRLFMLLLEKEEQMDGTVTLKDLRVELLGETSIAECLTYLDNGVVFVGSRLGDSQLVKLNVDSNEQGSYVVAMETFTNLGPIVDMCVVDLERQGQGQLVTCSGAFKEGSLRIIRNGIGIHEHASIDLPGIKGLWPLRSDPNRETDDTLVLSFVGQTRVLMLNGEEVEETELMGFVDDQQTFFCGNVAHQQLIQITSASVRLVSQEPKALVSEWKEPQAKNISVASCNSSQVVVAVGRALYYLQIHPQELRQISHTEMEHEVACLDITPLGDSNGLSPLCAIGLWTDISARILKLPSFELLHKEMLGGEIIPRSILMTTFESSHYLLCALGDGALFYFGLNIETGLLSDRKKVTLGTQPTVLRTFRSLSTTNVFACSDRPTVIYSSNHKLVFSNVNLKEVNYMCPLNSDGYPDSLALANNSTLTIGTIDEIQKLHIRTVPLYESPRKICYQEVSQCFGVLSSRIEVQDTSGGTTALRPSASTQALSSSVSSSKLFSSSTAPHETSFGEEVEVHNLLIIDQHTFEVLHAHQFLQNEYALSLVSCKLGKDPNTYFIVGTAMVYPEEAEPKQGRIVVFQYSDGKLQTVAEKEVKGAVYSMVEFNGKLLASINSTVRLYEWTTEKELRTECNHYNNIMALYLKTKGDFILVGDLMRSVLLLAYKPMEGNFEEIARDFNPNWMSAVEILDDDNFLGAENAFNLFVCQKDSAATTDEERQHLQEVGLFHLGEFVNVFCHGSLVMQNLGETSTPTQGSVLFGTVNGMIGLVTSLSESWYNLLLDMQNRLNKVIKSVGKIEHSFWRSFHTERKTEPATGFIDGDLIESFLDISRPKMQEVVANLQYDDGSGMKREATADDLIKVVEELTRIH
IRAK1, sequence (P51617 whole entry): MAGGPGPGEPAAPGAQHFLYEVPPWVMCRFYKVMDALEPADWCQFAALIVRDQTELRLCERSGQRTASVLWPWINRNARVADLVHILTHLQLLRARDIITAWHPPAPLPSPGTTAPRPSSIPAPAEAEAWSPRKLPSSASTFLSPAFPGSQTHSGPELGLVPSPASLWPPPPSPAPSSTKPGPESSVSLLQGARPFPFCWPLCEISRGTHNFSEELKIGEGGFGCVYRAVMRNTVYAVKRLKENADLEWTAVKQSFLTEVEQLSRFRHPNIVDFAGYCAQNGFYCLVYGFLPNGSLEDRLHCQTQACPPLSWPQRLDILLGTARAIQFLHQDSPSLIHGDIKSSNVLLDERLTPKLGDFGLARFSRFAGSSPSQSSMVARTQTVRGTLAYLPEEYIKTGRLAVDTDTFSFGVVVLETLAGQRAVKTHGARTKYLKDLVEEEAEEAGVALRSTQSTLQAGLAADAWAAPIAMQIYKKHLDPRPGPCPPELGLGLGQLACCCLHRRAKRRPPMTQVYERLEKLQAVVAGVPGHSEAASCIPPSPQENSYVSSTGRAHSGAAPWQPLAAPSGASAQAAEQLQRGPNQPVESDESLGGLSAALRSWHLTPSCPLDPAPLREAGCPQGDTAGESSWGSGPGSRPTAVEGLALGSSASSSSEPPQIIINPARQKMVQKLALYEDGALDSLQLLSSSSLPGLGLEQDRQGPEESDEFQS

For `NC(=O)c1nn(-c2ccc(C(=O)NCCOCCOCCNc3cccc4c3C(=O)N(C3CCC(=O)NC3=O)C4=O)cc2)cc1NC(=O)c1coc(-c2ccnc(NCC(F)(F)F)c2)n1` (stereo not drawn) [Comparative Compound a2, reference compound], on IRAK4 [1] (setting [5]), the IC50 was 1.2 nM. Further, the DC50 on IRAK1 is over 10 µM; at IRAK4 [2] (setting [7]), 26 nM; on GSPT1 it was over 10 µM; at IRAK4 [3], 60 nM. Moreover, the results for the Dmax at IRAK4 [2] (setting [6]) and on IRAK4 [3] were 88% and 100%, respectively. Also, in the assay on Jurkat cells, the EC50 was over 10 µM. Moreover, the “Rescue by proteasome or Nedd8 inhibition” value at IRAK4 [4] is listed as “YES”.

As to `CC[C@@H]1[C@H](F)C(=O)N[C@@H]1COc1ncc(C#CCN2CCC3(CC2)CCN(c2ncc(C(=O)N[C@H](C(=O)N4C[C@H](O)C[C@H]4C(=O)NCc4ccc(-c5scnc5C)cc4)C(C)(C)C)cn2)CC3)c2cc(C(N)=O)c(OC)cc12` [Comparative b1, reference compound], the IC50 on IRAK4 [1] (setting [8]) was 2.3 nM. For the same compound, the DC50 was over 10 µM on IRAK1, 204 nM at IRAK4 [2] (setting [7]), over 10 µM on GSPT1 and 80 nM at IRAK4 [3]. Further, the Dmax amounted to 95% on IRAK4 [2] (setting [6]) and 100% on IRAK4 [3]. Moreover, the EC50 with Jurkat cells was over 10 µM. Moreover, at IRAK4 [4], the “Rescue by proteasome or Nedd8 inhibition” value is “YES”.

In the case of `CC(C)Nc1cc(-c2ccc3cc(C#N)cnn23)ncc1-c1nnc(N2CCN(C(=O)C3CCN(Cc4ccc5c(c4)C(=O)N(C4CCC(=O)NC4=O)C5=O)CC3)CC2)s1` (stereo not drawn) [Example 13, 7-(5-(5-(4-(1-((2-(2,6-dioxopiperidin-3-yl)-1,3-dioxoisoindolin-5-yl)methyl)piperidine-4-carbonyl)piperazin-1-yl)-1,3,4-thiadiazol-2-yl)-4-(isopropylamino)pyridin-2-yl)pyrrolo[1,2-b]pyridazine-3-carbonitrile], the IC50 on IRAK4 [1] (setting [5]) was found to be 0.5 nM; at IRAK4 [1] (setting [9]), 0.5 nM; at IRAK4 [1] (setting [10]), 0.8 nM. Moreover, the DC50 is over 10 µM at IRAK1; 25.6 nM at IRAK4 [2] (setting [13]); 27 nM on IRAK4 [2] (setting [14]); 26 nM at IRAK4 [2] (setting [7]); over 10 µM at GSPT1; 50 nM on IRAK4 [3]. For the same compound, the Dmax on IRAK4 [2] (setting [11]) is 101%; on IRAK4 [2] (setting [12]) it was 100%; at IRAK4 [2] (setting [6]), 101%; on IRAK4 [3], over 100%. The EC50 with Jurkat cells was over 10 µM. For the same compound, the “Rescue by proteasome or Nedd8 inhibition” value at IRAK4 [4] was “YES”.

`CC(C)Nc1cc(-c2ccc3cc(C#N)cnn23)ncc1-c1nnc(N2CCN(C(=O)C3CCN(CC4CCN(c5ccc(-c6nn(C7CCC(=O)NC7=O)c(=O)n6C)cc5)CC4)CC3)CC2)s1` (stereo not drawn) [Example 24, 7-(5-(5-(4-(1-((1-(4-(1-(2,6-dioxopiperidin-3-yl)-4-methyl-5-oxo-4,5-dihydro-1H-1,2,4-triazol-3-yl)phenyl)piperidin-4-yl)methyl)piperidine-4-carbonyl)piperazin-1-yl)-1,3,4-thiadiazol-2-yl)-4-(isopropylamino)pyridin-2-yl)pyrrolo[1,2-b]pyridazine-3-carbonitrile]: the concentration for half-maximal inhibition (IC50) at IRAK4 [1] (setting [5]), at IRAK4 [1] (setting [9]) and on IRAK4 [1] (setting [10]) was 0.6 nM in each case. Moreover, the DC50 was over 10 µM at IRAK1; 327 nM at IRAK4 [2] (setting [13]); 310 nM on IRAK4 [2] (setting [14]); 327 nM at IRAK4 [2] (setting [7]); over 10 µM on GSPT1; 420 nM on IRAK4 [3]. For the same compound, the Dmax is 102% on IRAK4 [2] (setting [11]), 112% on IRAK4 [2] (setting [12]), 102% on IRAK4 [2] (setting [6]) and over 100% on IRAK4 [3]. Further, the EC50 with Jurkat cells was over 10 µM. For the same compound, the “Rescue by proteasome or Nedd8 inhibition” value on IRAK4 [4] is “YES”.

Regarding `Cc1ncsc1-c1ccc(CNC(=O)[C@@H]2C[C@@H](O)CN2C(=O)[C@@H](NC(=O)CCCC(=O)N2CCN(c3nnc(-c4cnc(-c5ccc6cc(C#N)cnn56)cc4NC(C)C)s3)CC2)C(C)(C)C)cc1` [Example 35, (2S,4R)-1-((S)-2-(5-(4-(5-(6-(3-cyanopyrrolo[1,2-b]pyridazin-7-yl)-4-(isopropylamino)pyridin-3-yl)-1,3,4-thiadiazol-2-yl)piperazin-1-yl)-5-oxopentanamido)-3,3-dimethylbutanoyl)-4-hydroxy-N-(4-(4-methylthiazol-5-yl)benzyl)pyrrolidine-2-carboxamide], the IC50 at IRAK4 [1] (setting [8]), at IRAK4 [1] (setting [9]) and at IRAK4 [1] (setting [10]) was 5.2 nM throughout. Further, the DC50 on IRAK1 was over 10 µM; at IRAK4 [2] (setting [13]), 590 nM; on IRAK4 [2] (setting [14]) it was 235 nM; on IRAK4 [2] (setting [7]), 590 nM; on GSPT1, over 10 µM; on IRAK4 [3], 400 nM. Also, the Dmax at IRAK4 [2] (setting [11]), on IRAK4 [2] (setting [12]), at IRAK4 [2] (setting [6]) and on IRAK4 [3] was 100% each time. In addition, in the assay with Jurkat cells, the EC50 was over 10 µM. The “Rescue by proteasome or Nedd8 inhibition” value at IRAK4 [4] is given as “YES”.
